Assay results published in ChEMBL document CHEMBL3091352, “Synthesis and pharmacological evaluation of novel bisindolylalkanes analogues” (Bioorg Med Chem, 2013).

Organism: Homo sapiens
Experiment: Inhibition of human DNA topoisomerase-2 at 100 uM after 30 mins by agarose gel electrophoresis

COc1cc([C@@H]2c3cc4c(cc3[C@@H](O[C@@H]3O[C@@H]5CO[C@@H](C)O[C@H]5[C@H](O)[C@H]3O)[C@H]3COC(=O)[C@H]23)OCO4)cc(OC)c1O
inhibition: 90.3%
